Measurements: US6166085A, “Method of producing analgesia” (priority 1996, dated 2000)
Entries after “also recorded” stand apart in the source; their conditions may differ.

Tests used:
allodynia = assay: Tactile allodynia (paw withdrawal threshold, % MPE) in L5/L6 spinal nerve ligated rats, Example 3; format: in vivo, Harlan Sprague-Dawley rats
Procedure: Male Harlan Sprague-Dawley rats were used (100-200 g). Rats were housed 2-3 to a cage with corn cob bedding and Purina rat chow and water ad libitum, in a standard facility with a 12 h/12 h day/night cycle. After surgical procedures involving chronic indwelling catheter insertion, animals were housed singly to prevent catheter damage.
Rats were allowed to recover 5-7 days before further testing or surgeries.
The catheters were 9 cm in intrathecal length and terminated near the lumbar enlargement. The rostral 3 cm of catheter was tunneled under the skin to externalize between the ears. Rats with neurologic deficits were discarded.
For intravascular access, external jugular catheters were fashioned from PE-50 tubing and inserted into an external jugular vein under halothane/oxygen anesthesia. Arterial catheters were also fashioned from PE-50 with a small bouton 1 cm from the intravascular end for suture securing; they were inserted into a carotid artery, taking care to spare the surrounding nerves. All catheters were flushed with heparinized saline (10 U/ml) and tunneled subcutaneously to emerge at the posterior base of the neck, and capped when not in use.
Monoethylglycinexylidide (MEGX) and 3-hydroxy monoethyl-glycinexylidide (3-OH MEGX) were dissolved in physiologic saline; 3-hydroxylidocaine (3-OH L) was dissolved in DMSO for intravenous administration.
Intravenous drugs were delivered to awake, unrestrained rats by slow infusion using a syringe pump (Harvard apparatus 22). Intrathecal drugs were delivered to awake, briefly restrained rats in a volume of 10 μl, followed by 10 μl of vehicle flush, using a calibrated tubing extension with a 30-gauge adapter fitting the implanted intrathecal catheter, attached to a geared Hamilton 100 μl glass syringe. IT drug delivery was monitored by observing the advancement of a small air bubble down the tubing.
Rats were placed in a plastic cage with an open wire mesh bottom and allowed to accommodate for approximately fifteen minutes. […] In brief, von Frey hairs were sequentially applied using an up-and-down paradigm to the left mid-plantar hindpaw with sufficient force to cause slight filament buckling. Positive responses were noted if the paw was sharply withdrawn. […] Otherwise, PWT were calculated by noting the stimulus level at which the first change in behavior occurred, collecting four additional responses to the continued up-and-down oscillation of stimulus presentation around the response threshold, and interpolating the 50% response threshold. For some comparisons, raw thresholds were converted to percent of maximum possible effect (% MPE), designating pre-treatment PWT (baselines) as 0% effect, and assigning a cutoff value of 100% effect to thresholds ≥15 g: therefore, % MPE values near 100 indicate normal mechanical thresholds (i.e., at or near 15 g), whereas values near 0 indicate allodynia. The following equation was used to compute % MPE:
% MPE=new threshold(g)-baseline threshold(g)×100/ 15 grams--baseline
Plasma drug levels and PWT were correlated using linear regression. Serially measured PWT and % MPE were compared using repeated measures ANOVA with post-hoc testing.

[1] = tested on: sciatic nerve compound action potential; assay: Rat sciatic nerve compound action potential in vivo, direct application; design: species or system Harlan Sprague Dawley rats; conditions: for blockade of sciatic nerve compound action potential (in words): direct application, metabolites 5 mg, 10 min
Procedure: Male Harlan Sprague Dawley rats (300-350 g) were anesthetized with pentobarbital/diazepam. The sciatic nerves were sequentially and bilaterally exposed by sharp/blunt dissection from the popliteal region proximally. Electrodes were placed at the sciatic notch (stimulating), and the interossei (recording); a grounding electrode was applied remote from the field. Baseline compound action potential (CAP) (A alpha/beta) wave heights (mV) in response to stimulation 1× per minute were recorded for ten minutes to obtain a stable reference. One drug/vehicle solution was applied per nerve, at mid-nerve (mid-thigh) level, in a volume of 250 μl, and compound action potential wave height then was recorded 1× per minute for ten minutes after application.

[2] = tested on: formalin-induced nociceptive responses; assay: Rat formalin test (paw flinching), intrathecal drug; format: in vivo, Sprague-Dawley rats
Description: One such model, for response to an acute stimulus, is the rat formalin test. This test reflects several levels of processing of nociceptive information in the spinal cord (see Wheeler-Aceto, et al. 1990; Wheeler-Aceto, et al., 1991). […] This second phase is thought to represent a state of facilitated processing evoked by the afferent input present during phase 1 and to involve release of at least two substances, glutamate and a, tachykinin, based on pharmacological evidence (Yamamoto and Yaksh, 1991, 1992).
In the rat formalin test, a standard dose of formalin is injected into the rat paw, and flexions of the paw are quantitated over the following 90 minute period (Example 1). A biphasic response pattern is typically observed, with numerous responses observed during the period 5 min. after injection (Phase 1) and a second phase (Phase 2) which occurs during the period about 10-60 minutes following injection. The mean number of flinches per minute is recorded as a function of time.
Quantitation of responses during each phase is made by calculation of area under the curve of flinches/min., as shown in FIGS. 2B-2C.
FIGS. 2, 3 and 5 show results of experiments in which varying doses of 3-hydroxy MEGX designated 3-hydroxy MEGX, were tested for effects on the formalin response in rats. A 5% formalin solution was injected subcutaneously into the hindpaw of Sprague-Dawley rats. Ten minutes prior to formalin injection, 3-hydroxy MEGX was administered by bolus injection through an indwelling spinal (intrathecal) catheter terminating at the lumbar enlargement. For the results shown in FIGS. 2A-2C, dosing solutions were acidified to pH 6.58 with HCl. Injection volume was 20 μl.
In the standard rat formalin test, as described above, the test substance is administered prior to formalin injection. […]
Rats (male Sprague-Dawley, 275-300 g, Harlan Industries, Indianapolis, Ind.) were implanted with lumbar intrathecal catheters under halothane anesthesia (Yaksh and Rudy, 1976). Catheters (Polyethlyene PE-10) extended from the cisterna to the rostral edge of the lumbar enlargement. Three to five days after implant, animals without motor dysfunction were tested. Drugs tested in this assay were dissolved in sterile saline (0.9% NaCl) and injected in a volume of 10 μl followed by 10 μl sterile saline to clear the catheter.
Animals were examined for the effects of drugs given in the formalin test, in which 50 μl of 5% formalin was injected on the plantar surface of the paw of a lightly anesthetized (halothane, 3%) animal. The number of spontaneous flinchings/shakings of the injected paw were counted at intervals after the injection of the formalin.
The area under the curve of flinches/min was calculated for phase 1 (time=0-10 min) and phase 2 (10-60 min). […]

[3] = Observation of motor dysfunction and overt behavior / side effects; format: in vivo, Sprague-Dawley rats; conditions: for overt changes in behavior / adverse side effects, formalin test: formalin test studies; for overt changes in behavior / adverse side effects, formalin test / adverse side effects, neuropathy model: intrathecal; for adverse side effects, neuropathy model: neuropathic rats, 3-hydroxy MEGX 0.3 and 0.6 μmol, lidocaine 0.6 μmol
Description: Animals were also observed for the appearance of general motor dysfunction,as evidenced by inability to ambulate symmetrically and for any other overt signs of unusual activity.

[4] = acute Phase 1, intrathecal, 10 min before 5% formalin, pH 6.58
[5] = lowest dose, 16.5 μg intrathecal, pH 6.58
[6] = persistent Phase 2, intrathecal, 10 min before 5% formalin, pH 6.58

CCNCC(=O)Nc1c(C)ccc(O)c1C [3-hydroxy MEGX, 2-(ethylamino)-N-(3-hydroxy-2,6-dimethylphenyl) acetamide]
suppression of allodynia after IT administration (summary) (allodynia; IT): suppressed allodynia after IT administration
MPE, IT 67 μg (allodynia; IT, dose printed 67 μ, P<0.0001): 63±17%
effect on allodynia, IV (in words) (allodynia; IV infusion, 20 mg/kg): did not show a significant effect in suppressing allodynia
activity as metabolite with regard to allodynia suppression (allodynia; rat, in vivo): active metabolite with regard to allodynia suppression
local anesthetic (sodium channel blocking) activity ([1]; FIG. 12 legend): appears to lack local anesthetic (sodium channel blocking) activity altogether
blockade of sciatic nerve compound action potential (in words) ([1]; lidocaine 2.5 mg): no blockade could be obtained
activity in ranking of CAP blockade (Lido>MEGS>3-OH L>>3-OH MEGX=0) ([1]; metabolites at 5 mg, lidocaine 2.5 mg): 0
Phase 1 ED50 (approximately 50% inhibition) [2, 4]: 9.3 µg
Phase 1 ED50 (approximately 50% inhibition), molar [2, 4]: 42 nmol
duration of inhibition, higher doses ([2]; higher doses, intrathecal, pH 6.58, "up to 90 minutes or longer"): ≥ 90 min
blockade of persistent (Phase 2) nociceptive responses ([2]; intrathecal after formalin injection, pH 6.58): blocks persistent (Phase 2) nociceptive responses
blockade of formalin-induced acute and persistent nociceptive responses ([2]; intrathecal, dosing solutions pH 9.2, n=4 animals/group): dose-dependent blockade
duration of inhibition [2, 5]: up to one hour
inhibition of Phase 1 and Phase 2 responses [2, 5]: showed inhibition of both the Phase 1 and Phase 2 responses
Phase 2 ED50 (approximately 50% inhibition) [2, 6]: 29.9 µg
Phase 2 ED50 (approximately 50% inhibition), molar [2, 6]: 135 nmol
motor block / motor effects (summary) ([3]; IT, 3-hydroxy MEGX at effective anti-allodynia dose, MEGX in excess): did not cause motor block at an effective anti-allodynia dose; also recorded: no evidence of motor effects
overt changes in behavior / adverse side effects, formalin test [3]: produced no overt changes in behavior
adverse side effects, neuropathy model [3]: no observable adverse side effects

CCN(CC)CC(=O)Nc1c(C)cccc1C [lidocaine]
effect on allodynia / PWT, IT 500 μg (in words) (allodynia; IT, 500 μg, after recovery of motor function): no effect on allodynia was seen
blockade of sciatic nerve compound action potential (in words) ([1]; lidocaine 2.5 mg): rapid and complete blockade of the sciatic nerve action potential; also recorded: abolished the CAP with ten minutes
effect on formalin-induced nociceptive responses ([2]; intrathecal, pH 6.58, injection volume 20 μl): no effect on the formalin-induced nociceptive responses
duration of motor dysfunction (hindquarter flaccidity / weakness) ([3]; IT, 500 μg): approximately 10 minutes
motor dysfunction, IT (in words) ([3]; IT, Example 3, lidocaine and MEGX 500 μg, 3-OH L 58 μg (highest dose soluble in vehicle)): acute onset of hindquarter flaccidity
overt changes in behavior / adverse side effects, formalin test [3]: transient hindlimb paresis
adverse side effects, neuropathy model [3]: immediate and transient weakness
